Experimental data published in patent US8822198B2, “Method for optimizing a biopharmaceutical production process” (priority 2009, dated 2014).
Entries after “also recorded” stand apart in the source; their conditions may differ.

Legend:
CHO [1] = assay: Shake flask experiment, buffer screen (Example 2); format: cell-based, Chinese Hamster; conditions: shake flasks; for cell growth / buffer performance: 11 d, incubator 1
Experimental: The selection of the buffer systems (cell-free) is now operated with cells. The criterion for the choice of the buffer systems used in this experiment is an acceptable osmolality and good buffer characteristics during the introduction of gas into the shake flask incubator. […] The objective is to determine the best buffer medium, in relation to the growth performance of the cell, as a basis for a subsequent fermentation in the bioreactor. The preparation is carried out analytically as precisely as possible. The pH values are adjusted by BGA comparison. Lower buffer concentrations are added by means of stock solutions. After manufacture, sterile filtration is carried out. As a safety measure the experiments are carried out with n=2. To achieve two different gas supply variants, the experiments are split between two different incubators. A summary can be found in the experiment plan. […] The analysis on d0 (day 0) was carried out immediately after the seeding under the LAF box, i.e. without any previous effect of the CO2 atmosphere of the incubator.

CHO [2] = assay: Fermentation verification buffer system (Example 4); format: cell-based, Chinese Hamster; conditions: CO2-regulated bioreactors, NaHCO3 0-16 mM, FIG. 6
Description: In six CO2-regulated bioreactors the buffer systems TES and Sod-β are used with different concentrations of NaHCO3, in order to determine the optimum concentration of NaHCO3 in the medium. […] Medium B, NaHCO3-free, MOPS-free+weighed amount/stock solution buffer substance(s) • Feeding: […] NaOH (1.2M) (no CO2) • pCO2: day 0-3 5%, day 3-11 3% The buffer systems used with different concentrations of NaHCO3 are shown in Table 6. [table]

CHO [3] = assay: Bioreactor fermentation, pCO2 regulated/unregulated and buffer systems (Example 3); format: cell-based, Chinese Hamster
Experimental: The fermentation using the multifermenter is again preceded by an optimising test using SDR. In this preliminary test, in accordance with Example 1, different NaHCO3 concentrations are tested in conjunction with the media Sod-β/H and TES/K. In the experiment, in addition to the evaluation by the drop in pO2, an identically covered well plate is used having pH sensors. […] (The data from the preliminary test are not shown here.) Fermentation takes place in two multifermenters (corresponding to twelve individual fermenters) with different media combinations. The procedure and handling are based on the sections described under the headings Equipment, Methods and Operating steps. [table] The CO2 profile shown above applies to the regulated bioreactor FS 33.1. in the remaining fermenters, after the seeding (d0), for a specific length of time at a specific control magnitude, CO2(gas) is added in order to provide the cells with a minimum of dissolved CO2. […] In the context of determining cell density it was jointly decided that no further manual interventions are required for supplying CO2 gas. [table]

CHO [4] = conditions: acid added on day 3, FIG. 9B
Experimental: Different acids are added to three CO2-regulated bioreactors for a pH shift from 6.95 to 6.8 on day 3. The concentrations of the acid solutions are chosen such that the quantities of substance required, which have been determined beforehand in a titration, are present in 50 ml of solution.
The test set-up is described below: • Platform: Bioreactor/Multifermenter • Method: Fed Batch • Cell: CHO • Seeding density: 3×10^5 vc/mL • Start volume: 1.8 L • Run time: 11 days • Medium: Medium B, NaHCO3-free, MOPS-free+Sod-β (25 mM) • Feeding: Feed I continuously from day 2 • Temperature: 37° C. • pO2: 60% • Speed: 160 rpm • pH: day 0-3 7.00±0.05, day 3-11 6.80±0.05 • pH regulation: NaOH (1.2M) (no CO2)

CHO [5] = conditions: Na salt added on day 3, FIG. 8
Experimental: In 10 250 ml shake flasks, cells are tested for their acid tolerance with the addition of sodium salts. The salt solutions are selected such that the quantities of acids determined by titration beforehand are present in 1.5 ml of solution for a pH shift from 7.1 to 6.7. On day 3 these 1.5 ml of the different salt solutions are added to the shake flasks to simulate a pH shift.

SMILES | cell growth / buffer performance (CHO [1]) | standardised product concentration (CHO [4]) | further results
NC(CO)(CO)CO [Trizma base] | runs poorly |  | toxicity (CHO [1]; any concentration, pH stable): may be some toxicity
O=S(=O)(O)CCNC(CO)(CO)CO [TES, N-tris(hydroxymethyl)methyl-2-aminoethanesulphonic acid] | best buffer substances |  | standardised product concentration with different NaHCO3 concentrations (CHO [2]): same product concentrations both with and without the use of NaHCO3; also recorded: identical product concentrations; titre concentration compared with the control (CHO [3]; FIG. 5C, control NaHCO3 36 mmol/L): at the same level as those of the control
O=P(O)(O)O [phosphoric acid] |  | same product concentrations | 
O.O.O.O.O.O=P([O-])([O-])OC(CO)CO.[Na+].[Na+] [Sod-β, sodium-β-glycerophosphate-pentahydrate] | best buffer substances |  | standardised product concentration with different NaHCO3 concentrations (CHO [2]): not dependent on the amount of NaHCO3 in the medium; also recorded: productivity of the cells is independent of the concentration of NaHCO3
[Na+].[OH-] [NaOH, sodium hydroxide solution] |  |  | product formation rate by pH regulation agent (CHO [3]; NaOH versus Na2CO3, FIG. 4): better product formation rate
Cl [hydrochloric acid] |  | same product concentrations | 
CC(=O)[O-].[Na+] [sodium acetate] |  |  | toxic effect on cell growth (CHO [5]): toxic effect
O=S(=O)(O)O [sulphuric acid] |  | same product concentrations | 
